One series has as its system Trypanosoma brucei. Description: Antitrypanosomal activity against Trypanosoma brucei. The format is functional, organism-based.
The nature of series [1]: Cytotoxicity against human HepG2 cells assessed as reduction in cell viability. It counts as cell-based.
The nature of series [2]: Selectivity index, ratio of CC50 for human HepG2 cells to EC50 for Trypanosoma brucei. The format is toxicity. The conditions noted are these: read-out: Ratio CC50/EC50.
For series [3], the target named is Rhodesain (Trypanosoma brucei rhodesiense) (UniProt Q95PM0). Put plainly: Inhibition of Trypanosoma brucei rhodesain assessed as Kinact/Ki ratio.
Rhodesain (Trypanosoma brucei rhodesiense), sequence (Q95PM0 1-450): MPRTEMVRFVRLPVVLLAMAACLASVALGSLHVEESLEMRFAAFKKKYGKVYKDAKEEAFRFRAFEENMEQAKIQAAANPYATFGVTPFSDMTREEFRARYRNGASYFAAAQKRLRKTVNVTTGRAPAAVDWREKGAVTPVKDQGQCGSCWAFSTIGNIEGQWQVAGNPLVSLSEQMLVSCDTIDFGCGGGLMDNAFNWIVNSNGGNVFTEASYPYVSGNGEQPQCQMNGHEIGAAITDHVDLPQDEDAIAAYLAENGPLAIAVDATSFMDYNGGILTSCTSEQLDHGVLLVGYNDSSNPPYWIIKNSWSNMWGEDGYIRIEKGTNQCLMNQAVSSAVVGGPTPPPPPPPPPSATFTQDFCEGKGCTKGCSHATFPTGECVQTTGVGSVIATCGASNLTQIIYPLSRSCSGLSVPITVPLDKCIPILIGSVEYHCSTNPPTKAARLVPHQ
The target is the same in series [4]. Description: Inhibition of Trypanosoma brucei rhodesain at 10 uM measured after 1 hr relative to control.

A value given as a limit tells only on which side of the number the result lay.

The EC50 is the concentration needed to bring the measured effect to its halfway point. One may read the CC50 as the concentration that lowers cell viability or growth by half. As a reminder, the inhibition is the percentage by which the read-out fell short of the control. High values mean a response far below the control, low ones a response near the control. In turn, `Cn1cc([N+](=O)[O-])nc1C(=O)N[C@H](/C=C/S(=O)(=O)c1ccccc1)CCc1ccccc1` had a half-maximal effective concentration (EC50) in the series on Trypanosoma brucei of 7.04 µM. Further, the 50% cytotoxic concentration (CC50) in series [1] amounted to 28.8 µM. Moreover, in series [2], the selectivity ratio stood at 4.08. In addition, in series [3], the kinact/Ki came to 59 M⁻¹ s⁻¹. Also, the inhibition in series [4] was 91.9%.

`CC(C)C[C@@H](/C=C/S(=O)(=O)c1ccccc1)NC(=O)c1cccc2cccnc12` gave an EC50 in the series on Trypanosoma brucei of 7.98 µM. Besides, in series [1], the CC50 is 15.1 µM. Besides, the selectivity ratio in series [2] was determined as 1.89.

On to `O=C(N[C@H](/C=C/S(=O)(=O)c1ccccc1)Cc1ccccc1)c1cccc2cccnc12`, for which a half-maximal effect in the series on Trypanosoma brucei (EC50) was put at 11.7 µM. Besides, the CC50 in series [1] worked out at 25.3 µM. The selectivity ratio in series [2] was determined as 2.16.

The compound `CCC[C@@H](/C=C/S(=O)(=O)c1ccccc1)NC(=O)c1cccc2cccnc12` showed a half-maximal effective concentration (EC50) in the series on Trypanosoma brucei of 9.23 µM. Besides, in series [1], the CC50 was over 80 µM. In addition, the selectivity ratio in series [2] was over 8.66. For the same compound, in series [3], the kinact/Ki came out at 82.1 M⁻¹ s⁻¹. For the same compound, the inhibition in series [4] amounted to 93.5%.

For `C[C@H]1CC(C)(C)Nc2c(C(=O)N[C@H](/C=C/S(=O)(=O)c3ccccc3)CCc3ccccc3)cccc21`, the EC50 in the series with Trypanosoma brucei amounted to 3.02 µM. Besides, in series [1], the CC50 was over 300 µM. In series [2], the selectivity ratio is over 99.3.

For `O=C(N[C@H](/C=C/S(=O)(=O)c1ccccc1)CCc1ccccc1)c1cccc2c1NCCC2`, the EC50 in the series with Trypanosoma brucei was 6.3 µM. In addition, the CC50 in series [1] is over 160 µM. For the same compound, the selectivity ratio in series [2] is over 25. In series [3], the kinact/Ki was 245 M⁻¹ s⁻¹. In series [4], the inhibition was determined as 100%.

In the case of `CCCC[C@@H](/C=C/S(=O)(=O)c1ccccc1)NC(=O)c1cccc2cccnc12`, a half-maximal effect in the series on Trypanosoma brucei (EC50) was put at 6.2 µM. The CC50 in series [1] worked out at 36.5 µM. The selectivity ratio in series [2] was determined as 6.38. Moreover, the kinact/Ki in series [3] was found to be 108 M⁻¹ s⁻¹. This compound yielded an inhibition in series [4] of 96.2%.

In turn, `O=C(N[C@H](/C=C/S(=O)(=O)c1ccccc1)CCc1ccccc1)c1ccc([N+](=O)[O-])s1` returned a concentration giving a half-maximal response (EC50) with Trypanosoma brucei of 0.69 µM. Besides, the CC50 in series [1] is 12.4 µM. Moreover, the selectivity ratio in series [2] was found to be 18. In series [4], this compound registered an inhibition of 100%.

Compound `Cc1ccc(C(=O)Nc2ccc(S(=O)(=O)O)c3cc(S(=O)(=O)O)cc(S(=O)(=O)O)c23)cc1NC(=O)c1cccc(NC(=O)Nc2cccc(C(=O)Nc3cc(C(=O)Nc4ccc(S(=O)(=O)O)c5cc(S(=O)(=O)O)cc(S(=O)(=O)O)c45)ccc3C)c2)c1` [SURAMIN] came in with an EC50 with Trypanosoma brucei of 0.004 µM.

In turn, `Cc1ncn(C)c1C(=O)N[C@H](/C=C/S(=O)(=O)c1ccccc1)CCc1ccccc1` displayed an EC50 in the series on Trypanosoma brucei of 19.6 µM. Moreover, the CC50 in series [1] stood at 34.4 µM. In addition, the selectivity ratio in series [2] worked out at 1.76.

Regarding `CC1=CC(C)(C)Nc2c(C(=O)N[C@H](/C=C/S(=O)(=O)c3ccccc3)CCc3ccccc3)cccc21`, the response in the series with Trypanosoma brucei was half-maximal at 1.88 µM (EC50). Further, in series [1], the CC50 was over 300 µM. Further, the selectivity ratio in series [2] was over 160.

With `COc1cc([C@@H]2c3cc4c(cc3[C@H](O)[C@H]3COC(=O)[C@H]23)OCO4)cc(OC)c1OC` [PODOFILOX], the CC50 in series [1] is under 0.5 µM.

`O=C(N[C@H](/C=C/S(=O)(=O)c1ccccc1)CCc1ccccc1)[C@@H]1CSCN1` came in with an EC50 in the series on Trypanosoma brucei of 6.94 µM. In series [1], the CC50 came to 77.8 µM. Also, in series [2], the selectivity ratio stood at 11.2. For the same compound, the kinact/Ki in series [3] was 161 M⁻¹ s⁻¹. The inhibition in series [4] amounted to 99.3%.

Compound `O=C(N[C@H](/C=C/S(=O)(=O)c1ccccc1)CCc1ccccc1)c1ccc([N+](=O)[O-])o1` registered an EC50 in the series with Trypanosoma brucei of 0.11 µM. The CC50 in series [1] turned out to be 5.17 µM. The selectivity ratio in series [2] turned out to be 47. In addition, in series [4], the inhibition stood at 78.1%.

In turn, `O=C(NC/C=C/S(=O)(=O)c1ccccc1)c1cccc2cccnc12` displayed an EC50 with Trypanosoma brucei of 14.3 µM. For the same compound, in series [1], the CC50 was determined as 55.5 µM. The selectivity ratio in series [2] amounted to 3.86.

As for `O=C(N[C@H](/C=C/S(=O)(=O)c1ccccc1)CCc1ccccc1)c1cccc2cccnc12`, the EC50 in the series with Trypanosoma brucei is 5.97 µM. Besides, the CC50 in series [1] was over 80 µM. In series [2], the selectivity ratio was over 13.4. The inhibition in series [4] is 100%.

Turning to `O=C(Cc1ccccn1)N[C@H](/C=C/S(=O)(=O)c1ccccc1)CCc1ccccc1`, the EC50 in the series with Trypanosoma brucei is over 20 µM. The CC50 in series [1] is 37.9 µM.

In turn, `O=C(N[C@H](/C=C/S(=O)(=O)c1ccccc1)CCc1ccccc1)c1cccc2nccnc12` yielded an EC50 with Trypanosoma brucei of 5.9 µM. For the same compound, the CC50 in series [1] is 39.6 µM. Moreover, in series [2], the selectivity ratio came to 6.71. In addition, the kinact/Ki in series [3] was determined as 293 M⁻¹ s⁻¹. In addition, the inhibition in series [4] amounted to 99.1%.

For the origin of these results see ChEMBL document CHEMBL4622901, “Vinyl sulfone-based inhibitors of trypanosomal cysteine protease rhodesain with improved antitrypanosomal activities” (Bioorg Med Chem Lett, 2020).
